# Reference: patent US20050043363A1, “Efficient microbial preparation of capravirine metabolites M4 and M5” (AGOURON PHARMACEUTICALS, INC., priority 2003, published 2005)
# Key:
# HIV = experiment: Antiviral activity determined measuring XTT dye reduction; assay type: cell-based; conditions: for EC50 / EC90: Human immunodeficiency virus 1, antiviral activity, XTT dye reduction, mean of 2-4 experiments (M4, M5) or 9 experiments (CPV)
# Description: The term “EC50”, as used herein, means the statistically derived concentration of a toxicant that can be expected to cause a defined non-lethal effect in 50% of a given population of organisms under defined conditions.
# The term “EC90”, as used herein, means the statistically derived concentration of a toxicant that can be expected to cause a defined non-lethal effect in 90% of a given population of organisms under defined conditions.
# [1] = Cytotoxicity determined measuring XTT dye reduction; assay type: cell-based; conditions: compound-treated cells, 50% cytotoxicity concentration, uninfected cells
# Procedure: The term “CC50”, as used herein, means the 50% cytotoxicity concentration, which is calculated as the concentration of compound that decreases the viability of uninfected, compound-treated cells to 50% of that of uninfected, compound-free cells.
Compound,TI (Therapeutic index = CC50/EC50) (HIV),EC50 (HIV) [nM],EC90 (HIV) [nM],CC50 [1] [µM]
"CC(C)c1nc(COC(N)=O)n(Cc2ccncc2)c1Sc1cc(Cl)cc(Cl)c1 [CPV, 2-carbamoyloxymethyl-5-(3,5-dichlorophenyl)thio-4-isopropyl-1-(4-pyridyl)methyl-1H-imidazole, reference compound]","45,667",1.5,3.2,69
CC(C)(O)c1nc(COC(N)=O)n(Cc2ccncc2)c1Sc1cc(Cl)cc(Cl)c1 [M4],">6,737",48,110,> 320
CC(CO)c1nc(COC(N)=O)n(Cc2ccncc2)c1Sc1cc(Cl)cc(Cl)c1 (stereo not drawn) [M5],">6,882",47,110,> 320
